US7728012B2, “Carboxamide compounds and their use as calpain inhibitors” (Abbott GmbH & Co. KG, priority 2006, dated 2010)

How the values were obtained:
Assay type in all cases: biochemical
[1] = molecular target: T1, cathepsin K activated from recombinant human procathepsin K (Homo sapiens, UniProt P43235); assay: Cathepsin K kinetic fluorescence enzyme inhibition assay; conditions: selectivity ratio versus calpain I
T1 construct: purchased Calbiochem 342001; host or cells: E. coli
T1 sequence (P43235 115-329): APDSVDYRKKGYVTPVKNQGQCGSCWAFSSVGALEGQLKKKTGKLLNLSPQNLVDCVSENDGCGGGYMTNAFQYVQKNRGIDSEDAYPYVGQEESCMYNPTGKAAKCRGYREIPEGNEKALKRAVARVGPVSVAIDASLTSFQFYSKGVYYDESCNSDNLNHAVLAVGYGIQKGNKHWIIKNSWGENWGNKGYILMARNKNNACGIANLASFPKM

[2] = molecular target: T2, cathepsin B isolated from human liver (Homo sapiens, UniProt P07858); assay: Cathepsin B kinetic fluorescence enzyme inhibition assay; conditions: selectivity ratio versus calpain I
T2 construct: cathepsin B—isolated from human liver; purchased Calbiochem 219362; host or cells: human liver (tissue isolate)
How it was run: (§1)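 Cathepsin B (0.25 nM, human liver) with 100 μM Z-Phe-Arg-AMC; L (1 nM, human liver) with 2 μM Z-Phe-Arg-AMC; S (0.5 nM, recombinant) with 20 μM Z-Val-Val-Arg-AMC. pH 6.0 MES buffer, 2.5 mM L-cysteine, room temperature. Kinetic fluorescence (ex 390/em 460 nm); apparent Ki from IC50 by Cheng-Prusoff.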

[3] = molecular target: T3, recombinant human cathepsin S (Homo sapiens, UniProt P25774); assay: Cathepsin S kinetic fluorescence enzyme inhibition assay; conditions: selectivity ratio versus calpain I
T3 construct: purchased Calbiochem 219343; host or cells: E. coli
T3 sequence (P25774 115-331): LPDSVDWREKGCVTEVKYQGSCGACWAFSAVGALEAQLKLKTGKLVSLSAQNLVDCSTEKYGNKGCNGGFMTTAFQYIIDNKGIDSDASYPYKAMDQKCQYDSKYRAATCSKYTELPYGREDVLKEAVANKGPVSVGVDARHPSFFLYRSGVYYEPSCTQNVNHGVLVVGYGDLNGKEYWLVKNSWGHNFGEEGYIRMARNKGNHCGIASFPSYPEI
How it was run: as §1

[4] = molecular target: T4, cathepsin L isolated from human liver (Homo sapiens, UniProt P07711); assay: Cathepsin L kinetic fluorescence enzyme inhibition assay; conditions: selectivity ratio versus calpain I
T4 construct: cathepsin L—isolated from human liver; purchased Calbiochem 219402; host or cells: human liver (tissue isolate)
T4 sequence (P07711 114-333): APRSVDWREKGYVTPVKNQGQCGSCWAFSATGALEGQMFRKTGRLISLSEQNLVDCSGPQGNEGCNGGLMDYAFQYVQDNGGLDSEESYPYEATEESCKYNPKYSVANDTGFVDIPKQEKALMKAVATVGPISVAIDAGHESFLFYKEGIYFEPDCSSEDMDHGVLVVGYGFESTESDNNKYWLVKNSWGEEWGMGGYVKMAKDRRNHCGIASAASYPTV
How it was run: as §1

[5] = molecular target: T5, calpain-I isolated from human erythrocytes (Homo sapiens, UniProt P07384); assay: Calpain I kinetic fluorescence enzyme inhibition assay; conditions: apparent Ki from IC50 by Cheng-Prussoff; average of 2 to 4 dose-effect plots
T5 construct: calpain-I—isolated from human erythrocytes; purchased Calbiochem 208713; host or cells: human erythrocytes (tissue isolate)
T5 sequence (P07384 1-714): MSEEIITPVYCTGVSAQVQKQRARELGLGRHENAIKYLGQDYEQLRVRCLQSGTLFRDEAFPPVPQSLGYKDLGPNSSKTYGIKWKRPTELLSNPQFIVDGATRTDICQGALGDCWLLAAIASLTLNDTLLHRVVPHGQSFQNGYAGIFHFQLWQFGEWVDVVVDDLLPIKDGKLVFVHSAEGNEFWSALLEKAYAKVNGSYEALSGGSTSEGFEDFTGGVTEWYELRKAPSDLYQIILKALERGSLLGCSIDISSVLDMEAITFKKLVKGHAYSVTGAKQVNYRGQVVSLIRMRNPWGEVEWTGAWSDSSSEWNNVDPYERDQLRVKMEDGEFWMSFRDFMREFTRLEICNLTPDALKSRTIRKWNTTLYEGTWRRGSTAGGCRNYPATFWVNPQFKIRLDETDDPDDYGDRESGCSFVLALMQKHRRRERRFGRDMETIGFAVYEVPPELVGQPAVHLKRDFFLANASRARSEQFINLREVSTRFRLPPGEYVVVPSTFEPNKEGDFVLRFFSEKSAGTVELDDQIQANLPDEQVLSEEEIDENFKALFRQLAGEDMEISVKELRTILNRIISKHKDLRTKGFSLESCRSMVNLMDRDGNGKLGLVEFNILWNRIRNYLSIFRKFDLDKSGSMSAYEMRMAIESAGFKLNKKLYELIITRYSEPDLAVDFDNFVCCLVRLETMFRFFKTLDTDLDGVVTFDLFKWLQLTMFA
T5 sequence (P04632 1-268 partner): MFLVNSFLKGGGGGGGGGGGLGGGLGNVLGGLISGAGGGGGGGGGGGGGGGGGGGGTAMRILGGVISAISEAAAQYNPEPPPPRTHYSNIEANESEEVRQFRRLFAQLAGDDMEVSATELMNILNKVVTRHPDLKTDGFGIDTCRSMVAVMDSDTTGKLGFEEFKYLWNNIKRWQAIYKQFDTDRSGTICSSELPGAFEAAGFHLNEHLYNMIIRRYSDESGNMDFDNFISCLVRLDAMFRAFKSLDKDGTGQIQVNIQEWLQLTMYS

Row | SMILES | Ki [5] | Sel cat. K (Ki(cathepsin K)/Ki(calpain) ratio) [1] | Sel cat. B (Ki(cathepsin B)/Ki(calpain) ratio) [2] | Sel cat. S (Ki(cathepsin S)/Ki(calpain) ratio) [3] | Sel cat. L (Ki(cathepsin L)/Ki(calpain) ratio) [4]
1 | NC(=O)C(=O)C(Cc1ccccc1)NC(=O)c1cccnc1-n1ccc(-c2c(F)ccc(Cl)c2Cl)n1 (stereo not drawn) [Example 120, N-[3-Amino-2,3-dioxo-1-(phenylmethyl)propyl]-2-[3-(2,3-dichloro-6-fluorophenyl)-1H-pyrazol-1-yl]pyridine-3-carboxamide] | ≤ 40 nM | ++ (Ki(cathepsin K)/Ki(calpain) ratio of ≧30) | ++ (Ki(cathepsin B)/Ki(calpain) ratio of ≧30) | ++ (Ki(cathepsin S)/Ki(calpain) ratio of ≧100) | + (30≦Ki(cathepsin L)/Ki(calpain)<50)
2 | NC(=O)C(=O)C(Cc1ccccc1)NC(=O)c1cccnc1-n1ccc(-c2cccc(C(F)(F)F)c2)n1 (stereo not drawn) [Example 83, N-(3-Amino-1-benzyl-2,3-dioxopropyl)-2-{3-[3-(trifluoromethyl)phenyl]-1H-pyrazol-1-yl}nicotinamide] | ≤ 40 nM | ++ (Ki(cathepsin K)/Ki(calpain) ratio of ≧30) | + (10≦Ki(cathepsin B)/Ki(calpain)<30) | ++ (Ki(cathepsin S)/Ki(calpain) ratio of ≧100) | ++ (Ki(cathepsin L)/Ki(calpain) ratio of ≧50)
3 | COc1ccc(Cl)cc1-c1ccn(-c2ncccc2C(=O)NC(Cc2ccccc2)C(=O)C(N)=O)n1 (stereo not drawn) [Example 131, N-[3-Amino-2,3-dioxo-1-(phenylmethyl)propyl]-2-{3-[5-chloro-2-(methyloxy)phenyl]-1H-pyrazol-1-yl}pyridine-3-carboxamide] | ≤ 40 nM | ++ (Ki(cathepsin K)/Ki(calpain) ratio of ≧30) | ++ (Ki(cathepsin B)/Ki(calpain) ratio of ≧30) | ++ (Ki(cathepsin S)/Ki(calpain) ratio of ≧100) | ++ (Ki(cathepsin L)/Ki(calpain) ratio of ≧50)
4 | NC(=O)C(=O)C(Cc1ccccc1)NC(=O)c1cccnc1-n1ccc(-c2cc(F)cc(F)c2)n1 (stereo not drawn) [Example 91, N-[3-Amino-2,3-dioxo-1-(phenylmethyl)propyl]-2-[3-(3,5-difluorophenyl)-1H-pyrazol-1-yl]pyridine-3-carboxamide] | ≤ 40 nM | + (10≦Ki(cathepsin K)/Ki(calpain)<30) | ++ (Ki(cathepsin B)/Ki(calpain) ratio of ≧30) | ++ (Ki(cathepsin S)/Ki(calpain) ratio of ≧100) | ++ (Ki(cathepsin L)/Ki(calpain) ratio of ≧50)
5 | COc1ccc(CC(NC(=O)c2cccnc2-n2ccc(-c3cccc(F)c3Cl)n2)C(=O)C(N)=O)cc1 (stereo not drawn) [Example 157, N-(3-Amino-1-{[4-(methyloxy)phenyl]methyl}-2,3-dioxopropyl)-2-[3-(2-chloro-3-fluorophenyl)-1H-pyrazol-1-yl]pyridine-3-carboxamide] | ≤ 40 nM | ++ (Ki(cathepsin K)/Ki(calpain) ratio of ≧30) | ++ (Ki(cathepsin B)/Ki(calpain) ratio of ≧30) | ++ (Ki(cathepsin S)/Ki(calpain) ratio of ≧100) | ++ (Ki(cathepsin L)/Ki(calpain) ratio of ≧50)
6 | NC(=O)C(=O)C(Cc1ccccc1)NC(=O)c1cccnc1-n1ccc(-c2ccc(F)cc2)n1 (stereo not drawn) [Example 38, N-(3-Amino-1-benzyl-2,3-dioxopropyl)-2-[3-(4-fluorophenyl)-1H-pyrazol-1-yl]nicotinamide] | 40 to 100 nM | + (10≦Ki(cathepsin K)/Ki(calpain)<30) | + (10≦Ki(cathepsin B)/Ki(calpain)<30) | ++ (Ki(cathepsin S)/Ki(calpain) ratio of ≧100) | ++ (Ki(cathepsin L)/Ki(calpain) ratio of ≧50)

Second part, led by results:

Row | Ki [5] | SMILES | Sel cat. K (Ki(cathepsin K)/Ki(calpain) ratio) [1] | Sel cat. B (Ki(cathepsin B)/Ki(calpain) ratio) [2] | Sel cat. S (Ki(cathepsin S)/Ki(calpain) ratio) [3] | Sel cat. L (Ki(cathepsin L)/Ki(calpain) ratio) [4]
7 | 40 to 100 nM | NC(=O)C(=O)C(Cc1ccccc1)NC(=O)c1cccnc1-n1ccc(-c2ccccc2Cl)n1 (stereo not drawn) [Example 54, N-(3-Amino-1-benzyl-2,3-dioxopropyl)-2-[3-(2-chlorophenyl)-1H-pyrazol-1-yl]nicotinamide] | ++ (Ki(cathepsin K)/Ki(calpain) ratio of ≧30) | ++ (Ki(cathepsin B)/Ki(calpain) ratio of ≧30) | ++ (Ki(cathepsin S)/Ki(calpain) ratio of ≧100) | ++ (Ki(cathepsin L)/Ki(calpain) ratio of ≧50)
8 | ≤ 40 nM | Cc1ccccc1-c1ccn(-c2ncccc2C(=O)NC(Cc2ccccc2)C(=O)C(N)=O)n1 (stereo not drawn) [Example 93, N-[3-Amino-2,3-dioxo-1-(phenylmethyl)propyl]-2-[3-(2-methylphenyl)-1H-pyrazol-1-yl]pyridine-3-carboxamide] | + (10≦Ki(cathepsin K)/Ki(calpain)<30) | ++ (Ki(cathepsin B)/Ki(calpain) ratio of ≧30) | ++ (Ki(cathepsin S)/Ki(calpain) ratio of ≧100) | ++ (Ki(cathepsin L)/Ki(calpain) ratio of ≧50)
9 | 40 to 100 nM | NC(=O)C(=O)C(Cc1ccccc1)NC(=O)c1cccnc1-n1ccc(-c2ccc(F)cc2Cl)n1 (stereo not drawn) [Example 71, N-(3-Amino-1-benzyl-2,3-dioxopropyl)-2-[3-(2-chloro-4-fluorophenyl)-1H-pyrazol-1-yl]nicotinamide] | ++ (Ki(cathepsin K)/Ki(calpain) ratio of ≧30) | ++ (Ki(cathepsin B)/Ki(calpain) ratio of ≧30) | ++ (Ki(cathepsin S)/Ki(calpain) ratio of ≧100) | ++ (Ki(cathepsin L)/Ki(calpain) ratio of ≧50)
10 | ≤ 40 nM | NC(=O)C(=O)C(Cc1ccccc1)NC(=O)c1cccnc1-n1ccc(-c2cc(Cl)ccc2Cl)n1 (stereo not drawn) [Example 112, N-[3-Amino-2,3-dioxo-1-(phenylmethyl)propyl]-2-[3-(2,5-dichlorophenyl)-1H-pyrazol-1-yl]pyridine-3-carboxamide] | ++ (Ki(cathepsin K)/Ki(calpain) ratio of ≧30) | ++ (Ki(cathepsin B)/Ki(calpain) ratio of ≧30) | ++ (Ki(cathepsin S)/Ki(calpain) ratio of ≧100) | ++ (Ki(cathepsin L)/Ki(calpain) ratio of ≧50)
11 | ≤ 40 nM | COc1ccccc1-c1ccn(-c2ncccc2C(=O)NC(Cc2ccccc2)C(=O)C(N)=O)n1 (stereo not drawn) [Example 90, N-[3-Amino-2,3-dioxo-1-(phenylmethyl)propyl]-2-{3-[2-(methyloxy)phenyl]-1H-pyrazol-1-yl}pyridine-3-carboxamide] | + (10≦Ki(cathepsin K)/Ki(calpain)<30) | ++ (Ki(cathepsin B)/Ki(calpain) ratio of ≧30) | ++ (Ki(cathepsin S)/Ki(calpain) ratio of ≧100) | ++ (Ki(cathepsin L)/Ki(calpain) ratio of ≧50)
12 | ≤ 40 nM | NC(=O)C(=O)C(Cc1ccccc1)NC(=O)c1cccnc1-n1ccc(-c2ccccc2F)n1 (stereo not drawn) [Example 76, N-(3-Amino-1-benzyl-2,3-dioxopropyl)-2-[3-(2-fluorophenyl)-1H-pyrazol-1-yl]nicotinamide] | + (10≦Ki(cathepsin K)/Ki(calpain)<30) | ++ (Ki(cathepsin B)/Ki(calpain) ratio of ≧30) | ++ (Ki(cathepsin S)/Ki(calpain) ratio of ≧100) | ++ (Ki(cathepsin L)/Ki(calpain) ratio of ≧50)
